Molecular target: T1, AhR (Homo sapiens, UniProt P35869)
T1 construct: Degradation of endogenous AhR was further confirmed via Western blotting and global proteomics measurements in cells treated with 12b; host or cells: MCF7
T1 sequence (P35869 11-848): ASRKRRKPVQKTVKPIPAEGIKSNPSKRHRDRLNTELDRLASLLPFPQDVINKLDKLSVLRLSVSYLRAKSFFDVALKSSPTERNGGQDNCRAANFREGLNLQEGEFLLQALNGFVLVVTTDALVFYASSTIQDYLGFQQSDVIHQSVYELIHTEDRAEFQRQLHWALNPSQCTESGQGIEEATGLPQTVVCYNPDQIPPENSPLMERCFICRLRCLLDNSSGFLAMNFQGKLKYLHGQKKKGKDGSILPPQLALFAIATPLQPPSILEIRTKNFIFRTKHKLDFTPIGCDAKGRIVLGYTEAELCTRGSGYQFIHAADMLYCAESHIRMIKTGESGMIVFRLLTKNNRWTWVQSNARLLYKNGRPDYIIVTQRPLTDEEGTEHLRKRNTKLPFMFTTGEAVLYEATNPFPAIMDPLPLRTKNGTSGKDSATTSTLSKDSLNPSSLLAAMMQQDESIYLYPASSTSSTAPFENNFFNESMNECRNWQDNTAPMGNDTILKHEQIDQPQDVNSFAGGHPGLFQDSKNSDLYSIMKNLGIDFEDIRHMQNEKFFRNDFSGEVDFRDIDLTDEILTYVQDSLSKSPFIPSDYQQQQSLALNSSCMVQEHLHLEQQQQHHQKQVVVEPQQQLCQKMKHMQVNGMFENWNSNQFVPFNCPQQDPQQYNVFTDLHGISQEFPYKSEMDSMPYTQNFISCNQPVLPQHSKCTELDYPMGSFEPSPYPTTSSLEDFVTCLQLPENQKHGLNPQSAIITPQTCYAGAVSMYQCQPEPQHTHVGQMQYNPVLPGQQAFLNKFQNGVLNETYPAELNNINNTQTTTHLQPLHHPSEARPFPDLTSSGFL
Assay: Western blot of AhR in MCF7 cells
Assay type: cell-based
Settings: 10 µM, 5 h
Protocol: Figure S30. Agonists induce degradation of AhR.
12b, 12c, and 12d at a concentration of 10 µM for 5h. The numbers on the Blot indicate the signal intensities of the bands relative to the Tubulin bands, normalized to DMSO treatment as quantified with Empiria Studio. […]
Cell culture and treatment […]
MCF7 cells were purchased from ATCC and grown in DMEM with 10% FCS and 1% penicillin/ streptomycin. […]
All cells were cultivated at 37 °C in a humidified atmosphere containing 5% CO 2.
Tapinarof (MedChemExpress, Monmouth Junction, NJ), benzo[a]pyrene (Sigma-Aldrich, Taufkirchen, Germany), TCDD (Amchro, Hattersheim am Main, Germany) and all compounds synthesized in this study were dissolved in dimethyl sulfoxide (DMSO; Roth). […]
Quantitative real-time PCR […]
• CYP1A1: […] (forward (5'>3')); […] (reverse (5'>3')).
• CYP1B1: […] (forward (5'>3')); […] (reverse (5'>3')).
• CCL26: […] (forward (5'>3')); […] (reverse (5'>3')).
• IL-19: […] (forward (5'>3')); […] (reverse (5'>3')).
• CXCL1: […] (forward (5'>3')); […] (reverse (5'>3')).
• β-actin: […] (forward (5'>3')); […] (reverse (5'>3')). […]
The assay was carried out as described earlier. Luciferase activity was normalized to protein content.
SDS-PAGE/Western blot analysis
Cells were lysed in RIPA buffer on ice and subsequently centrifuged for 15 min at 4 °C at maximum speed. Protein samples were separated by 10% and 12% SDS -polyacrylamide gel electrophoresis and blotted onto PVDF (GE Healthcare, Freiburg, Germany) or Nitrocellulose (BioRad #17 04158) membranes. Blots were blocked with 5% skim milk or bovine serum albumin in TBS -Tween-20 (0.1%) for or Intercept® (TBS) Blocking Buffer (LI -COR Biosciences) 1 h at room temperature and subsequently incubated overnight at 4 °C with primary antibodies. Blots were washed and then incubated for 1 h with a 1:5000 dilution of HRP -conjugated secondary antibodies in 5% bovine serum albumin in TBS -Tween-20 (0.1%) or anti-Mouse (Licor, IRDye® 680RD Goat anti -Mouse IgG, 1:10k dilution) or anti-Rabbit secondary antibody (Licor, IRDye® Goat anti -Rabbit IgG, 1:10k dilution) at room temperature. Bands were visualized using WesternBright ECL HRP substrate (Advansta, San Jose, CA) and a C -DiGit Western Blot Scanner (LI -COR Biotechnology, Lincoln, NE) or a Licor Odyssey CLx imager. Primary antibodies used in this study are as follows. AhR (Cat.No. 83200; Cell Signaling Technology, Leiden, The Netherlands). AIP (Cat.No. sc-59730; Santa Cruz Biotechnology, Dallas, TX). Cul4B (Cat.No. abx004735; Abbexa, Houston, TX). GAPDH (Cat.No. 2118; Cell Signaling Technology). Vinculin (Cat.No. 13901, Cell Signaling Technology). α - Tubulin (Abcam, ab7291, 1:10k dilution).
HaCaT-EV and HaCaT-shAhR cells were treated with either vehicle (DMSO) or 10 µM 12d for 0.5 h and 1 h. […]

- AhR receptor proteolysis: induced receptor proteolysis
SMILES: Cc1[nH]c2ccccc2c1-c1c2[nH]c3ccccc3c2cc2[nH]c3ccccc3c12 [5e]
